Consider 6 molecules from US20180263992A1, “TREATMENT OF NEURODEGENERATIVE DISEASES” (BENEVOLENTAI BIO LIMITED, priority 2015, published 2018).

Data set [1] can be described thus: Entry of Gefitinib into the brain with prior P-gp inhibitor. The data set is classed as in vivo, C57BL/6 mice.
For a further data set, the system named is ALS. The note with it: cited from earlier work.
For data set [2] the following is noted: multi-dose animal studies; cited from earlier work.
The conditions of data set [3]: in vivo; cited from earlier work.
For a further data set, the system named is human cancer cells. The conditions noted are these: cited from earlier work.
In data set [4] the test system is SOD1G93A mouse model of ALS. The conditions noted are these: cited from earlier work.
Another data set concerns the target P-glycoprotein (P-gp) (Homo sapiens, UniProt P08183). The conditions noted are these: Togashi et al. 2012; cited from earlier work.
Data set [5] has as its system murine Hb9-GFP+ motor neurons co-cultured with ALS patient iAstrocytes. The experiment in a line: ALS patient iAstrocyte / mouse Hb9-GFP+ motor neuron co-culture, motor neuron survival. The data set is classed as cell-based, human iAstrocytes, mouse motor neurons. The conditions noted are these: iAstrocytes of three ALS patients pre-treated 24 h; survival at 72 h vs 24 h, normalised to DMSO control.

For data set [6] the following is noted: in vivo; cited from earlier work. This is another data set of the same source.
The conditions of data set [7]: phase I trials; cited from earlier work.

Molecules are shown by their SMILES.

Sequence of P-glycoprotein (P-gp) (P08183 whole entry): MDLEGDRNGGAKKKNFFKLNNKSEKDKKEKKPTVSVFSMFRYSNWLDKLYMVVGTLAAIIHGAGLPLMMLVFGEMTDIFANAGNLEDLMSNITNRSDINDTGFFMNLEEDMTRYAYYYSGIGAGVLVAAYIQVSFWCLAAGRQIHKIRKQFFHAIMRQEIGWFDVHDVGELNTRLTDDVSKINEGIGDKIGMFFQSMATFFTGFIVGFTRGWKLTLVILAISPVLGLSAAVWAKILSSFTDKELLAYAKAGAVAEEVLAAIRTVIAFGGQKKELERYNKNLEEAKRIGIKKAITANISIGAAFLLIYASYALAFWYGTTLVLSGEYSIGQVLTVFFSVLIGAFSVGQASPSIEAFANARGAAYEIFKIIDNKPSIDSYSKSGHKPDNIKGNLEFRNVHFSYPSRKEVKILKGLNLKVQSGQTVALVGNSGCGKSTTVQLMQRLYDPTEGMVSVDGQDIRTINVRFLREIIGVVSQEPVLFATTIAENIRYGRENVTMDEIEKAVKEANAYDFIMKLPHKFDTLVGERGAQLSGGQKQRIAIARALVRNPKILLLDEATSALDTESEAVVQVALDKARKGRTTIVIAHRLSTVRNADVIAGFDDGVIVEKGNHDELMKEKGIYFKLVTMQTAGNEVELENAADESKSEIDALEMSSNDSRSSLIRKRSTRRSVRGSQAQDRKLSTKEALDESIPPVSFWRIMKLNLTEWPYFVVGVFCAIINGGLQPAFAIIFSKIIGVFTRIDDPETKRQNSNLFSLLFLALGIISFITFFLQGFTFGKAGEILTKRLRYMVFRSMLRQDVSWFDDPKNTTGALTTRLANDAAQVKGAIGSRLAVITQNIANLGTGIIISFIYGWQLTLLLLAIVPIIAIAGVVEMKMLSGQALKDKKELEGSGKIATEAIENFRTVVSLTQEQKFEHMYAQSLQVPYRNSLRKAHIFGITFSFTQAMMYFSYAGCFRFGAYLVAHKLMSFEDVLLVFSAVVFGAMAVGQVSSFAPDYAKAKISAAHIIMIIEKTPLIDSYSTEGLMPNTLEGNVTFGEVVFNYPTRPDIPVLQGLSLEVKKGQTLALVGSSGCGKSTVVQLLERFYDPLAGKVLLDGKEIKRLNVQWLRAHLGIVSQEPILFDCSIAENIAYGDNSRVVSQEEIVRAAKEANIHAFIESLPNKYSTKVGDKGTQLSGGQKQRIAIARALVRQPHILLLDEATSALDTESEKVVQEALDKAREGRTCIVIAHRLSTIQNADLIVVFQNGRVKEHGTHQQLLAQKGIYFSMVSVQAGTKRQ

`COc1cc2c(cc1OC)CN(CCc1ccc(NC(=O)c3cccc4c(=O)c5cccc(OC)c5[nH]c34)cc1)CC2` [Elacridar]: the “CNS penetration of Gefitinib” value in data set [1] (Elacridar 100 mg/kg po before Gefitinib 30 mg/kg po, 2 h post dose) is “significantly increased”; in [1] (Elacridar 100 mg/kg po before Gefitinib 100 mg/kg po, 2 h post dose), “significantly increased”.
For the molecule `CO[C@H]1C[C@@H]2CC[C@@H](C)[C@@](O)(O2)C(=O)C(=O)N2CCCC[C@H]2C(=O)O[C@H]([C@H](C)C[C@@H]2CC[C@@H](OCCO)[C@H](OC)C2)CC(=O)[C@H](C)/C=C(\C)[C@@H](O)[C@@H](OC)C(=O)[C@H](C)C[C@H](C)/C=C/C=C/C=C/1C` [Everolimus], in data set [1] (Everolimus 10 mg/kg ip), the “CNS penetration of Gefitinib” value was “did not appear to have any effect” and the “plasma exposure of Gefitinib” value is “increased”.
Consider `Nc1nc2ccc(OC(F)(F)F)cc2s1` [Riluzole], for which, in the data set with ALS (ALS), the prolongs life is 2-3 months and the relief of symptoms result is given as “does not relieve symptoms”. For the same molecule, the undesirable side effects entry in the data set on ALS (in vivo) was “nausea and fatigue”.
Consider `C=CC(=O)Nc1cc2c(Nc3ccc(F)c(Cl)c3)ncnc2cc1OCCCN1CCOCC1` [canertinib], for which the toxicity entry in [2] is given as “minimal toxicity”.
Take `C#Cc1cccc(Nc2ncnc3cc(OCCOC)c(OCCOC)cc23)c1` [erlotinib]: in data set [3], the undesirable side effects result was “skin irritation and diarrhea”. Further, in the data set with human cancer cells, the cell-cycle progression result is given as “blocks cell-cycle progression in the G1 phase” and the “concentration inhibiting EGF-dependent cell proliferation” value is on record as “nanomolar concentrations”. Also, in data set [4], the lifespan entry is recorded as “failed to extend lifespan”; the “modulation of markers for astrocytes and microglia” value is “did not correlate with a modulation of markers for astrocytes and microglia”; the “penetration into the central nervous system” value is listed as “penetrated into the central nervous system”; the “protection of motor synapses” value was “did not protect motor synapses”. The “symptom delay (readouts of disease onset and progression)” value in [4] was “modest yet statistically significant symptom delay”.
As for `COc1cc2ncnc(Nc3ccc(F)c(Cl)c3)c2cc1OCCCN1CCOCC1` [gefitinib, N-(3-chloro-4-fluoro-phenyl)-7-methoxy-6-(3-morpholin-4-ylpropoxy)quinazolin-4-amine], at P-glycoprotein (P-gp), the “P-glycoprotein (P-gp) substrate status” value was “substrate”. Moreover, the motor neuron survival result in data set [5] is on record as “dose-dependent increase in motor neuron survival”. Further, the biological half-life in [6] is reported as 28 hours. The maximal tolerated dosage in [7] is 700 mg/day.
